Source: publication PMC10983001, “Development of Cytotoxic GW7604-Zeise’s Salt Conjugates as Multitarget Compounds with Selectivity for Estrogen Receptor- Positive Tumor Cells” (Journal of Medicinal Chemistry, 2024)

Legend:
[1] = tested on: nuclei of SKBr3 cells; assay: Nuclear uptake (platinum by HR-CS-AAS), SKBr3; type: cell-based, human; conditions: SKBr3, 20 μM, 24 h
Procedure: Fluorescence in the nuclei is not detectable. Therefore, the nuclei were analyzed for their platinum content using HR-CS-AAS.[25]
After thawing of the cell/nuclei pellets, they were resuspended in ultrapure water (Siemens LaboStar, Günzburg, Germany; 300 μL) and lyzed with a sonotrode (Bandelin Sonoplus, Berlin, Germany; parameters 20 s, 9 cycles, 80% power). Graphite furnace (GF) AAS was used to quantify the lysates concerning their content of platinum (λ = 265.9450 nm). For this purpose, a contrAA 700 High-Resolution-Continous Source AAS (Analytik Jena, Jena, Germany) was employed, while atomization took place by electrothermal heating of graphite tubes with an inserted platform (Analytik Jena, Jena, Germany). […] The spectrometer was monitored with the ASpect CS software, version 2.3.1.0 (Analytik Jena, Jena, Germany). For all runs, the mean integrated absorbance was determined after three injections of each standard or sample. […] Each cell/nuclei lysate was quantified concerning its protein content following the method of Bradford[71] in order to express the uptake as the amount of compound (pmol) in the lysate relative to its protein mass (mg). […] All standards and lysates were measured in duplicate. After incubating for 5 min at rt, the absorbance (λ = 595 nm) was read on a microplate reader (Tecan Safire 2, Männedorf, Switzerland). […]

[2] = tested on: plasmid pSport1; assay: DNA interference assay (gel electrophoresis); type: binding; conditions: 20 μM, 4 h, 37 °C
Procedure: Therefore, the general possibility of DNA interaction was examined by incubating the complex with the empty plasmid pSport1 at a concentration of 20 μM for 4 h at 37 °C. The gel electrophoretic separation[60] […] The ladder structure differs from both the untreated sample (Figure 9A) and the solvent control (Figure 9B) and is similar to that of Cisplatin (Figure 9C).
Two μL (conc. 0.5 μg/μL) of an empty pSport1 (4109 base pairs) plasmid was mixed with 2 μL of each test compound (200 μM in DMF) and diluted with 16 μL of nuclease-free water to reach a final concentration of 20 μM for GW7604-Pent-PtCl3 and […] for Cisplatin. Afterward, this mixture was incubated for 4 h at 37 °C under gentle shaking. Samples were loaded with gel loading buffer on agarose gel [0.5% (w/v) in 1 × TRIS-acetate-EDTA (TAE) buffer + 0.004% Midori Green Advance]. The following running parameters were used: 95 min at 3 V/cm in 1 × TAE buffer. Images were visualized under UV light (254 nm).

[3] = tested on: MCF-7 cells; assay: Comet assay; type: cell-based, human; conditions: MCF-7, 20 μM, 48 h
Procedure: The comet assay (Figure 10), however, documents different consequences of DNA binding. […] The picture (Figure 10C) is very similar to that of the solvent control (Figure 10A).
MCF-7 cells were seeded at a density of 1.0 × 10^6 cells into a 25 cm^2 flask, followed by 24 h of incubation in a humidified atmosphere (5% CO2/95% air) at 37 °C. […] Cells were incubated with the compounds for 48 h. The assay was performed according to the manufacturer’s protocol (Comet assay kit, Abcam, Cambridge, UK). Briefly, after lysis and application to the microscopy slides, electrophoresis was run in an alkaline buffer for 20 min at 2 V/cm. Subsequently, slides were washed with pure deionized water and EtOH/water [7/3 (v/v)], and stained with Vista Green DNA Dye. Visualization was carried out by real-time live confocal microscopy using an inverted microscope (Zeiss Observer Z1) in arrangement with a spinning disc confocal system (UltraVIEW VoX).

[4] = tested on: 5′-guanosine monophosphate (5′-GMP); assay: Reaction with 5′-GMP (ESI-HR-MS); type: binding; conditions: 100 μM, MeOH/water 80/20, 5 min
Procedure: Thereto, GW7604-Pent-PtCl3 was incubated in a 1:1 ratio with 5′-GMP in a MeOH/water mixture [80/20, (v/v)], and the reaction products were identified by ESI-HR-MS after 5 min and 24 h.
GW7604-Pent-PtCl3 dissolved in MeOH was combined with an aqueous solution of 5′-GMP (disodium salt) to get an [80/20 (v/v)] solution with a complex concentration of 1 mM and a complex/5′-GMP proportion of 1/1.1. The mixture was diluted %1/10 (v/v)] with MeOH/water [80/20 (v/v)], reaching a final complex concentration of 100 μM, and ESI-HR-MS spectra were recorded after 5 min and 24 h. The obtained spectra were analyzed with MestreNova v14.

[5] = 30 μM, DMEM + 10% FCS, 37 °C, dark
Procedure: After protein precipitation with ice-cold methanol (MeOH), the compounds remaining in solution were analyzed by HPLC and electrospray ionization high-resolution mass spectrometry (ESI-HR-MS).
The solution was then incubated for 4 h at 37 °C in the dark. Proteins were precipitated upon addition of 33 mL of ice-cold MeOH, and the mixture was stored for 2 h at −20 °C. The supernatant was then separated by centrifugation (3000 rpm), collected, and dried by lyophilization. The lyophilizate was extracted three times with 5 mL of MeOH and finally dried under reduced pressure. The residue was taken up in 1 mL of HPLC-grade MeOH, and 30 μL thereof was analyzed by HPLC and ESI-HR-MS.

Structure (SMILES): CCC(=C(c1ccc(O)cc1)c1ccc(C=CC(=O)OCCC[CH]2[CH2][Pt-]2([Cl])([Cl])[Cl])cc1)c1ccccc1.[K+] (mixture of isomers) [GW7604-Pent-PtCl3, Potassium trichlorido[η^2-(pent-4-en-1-yl (E)-3-(4-((E/Z)-1-(4-hydroxyphenyl)-2-phenylbut-1-en-1-yl)phenyl)acrylate)]platinate(II)]
- platinum content in the nuclei [1]: 96 pmol/mg
- interaction with plasmid DNA [2]: binds to DNA
- comet tails (DNA cross-links) [3]: did not show this effect
- adduct formation with 5′-GMP [4]: 5′-GMP-platinum adducts were present
- time to complete degradation in cell culture medium [5]: ≤ 4 h
